21 sequences from the OligoGym collection can be followed below.

The data set concerns the target SOD1. Particulars: ASO.

Where “and” joins values, the source holds several entries; their conditions need not be identical. Equal entries are not always repeated. After the bases stand the sugars from the 5' end (letter, count) and the backbone: PS all phosphorothioate, else s phosphorothioate and o phosphodiester by linkage. Methylation of C is not given here. e = 2'-O-(2-methoxyethyl) (MOE); k = constrained ethyl (cEt); d = 2'-deoxy (DNA)

On to “CATTTCTACAGCTAGCA (sugars e3 k2 d7 k2 e3, PS)”, for which the target mRNA inhibition (HepG2, 3 µM) came out at 34%.

“TGAGAGTGAGATCACAGAAT (sugars e5 d10 e5, PS)”: the target mRNA inhibition (HepG2, 5 µM) came to 18%.

Sequence “CCTCATAATAAGTGCCATAC (sugars e5 d10 e5, PS)” came in with a target mRNA inhibition (HepG2, 5 µM) of 23%.

“TTAATGTTTATCAGGAT (sugars e4 d8 k2 e3, linkages s1 o2 s9 o2 s2)”: the target mRNA inhibition reads like this: (A431, 0.062 µM) 26%; (A431, 0.185 µM) 30%; (A431, 0.556 µM) 58%; (A431, 0.6 µM) 50%; (A431, 1.667 µM) 64%; (A431, 5 µM) 68%. Further, the target mRNA inhibition amounted to 78% (A431, 15 µM); 11% (SH-SY5Y, 0.062 µM); 44% (SH-SY5Y, 0.185 µM); 53% (SH-SY5Y, 0.556 µM); 75% (SH-SY5Y, 1.667 µM); 77% (SH-SY5Y, 5 µM). Also, the target mRNA inhibition (SH-SY5Y, 15 µM) came to 93%.

“CATAATAAGTGCCATAC (sugars e2 k2 d9 k2 e2, PS)” showed a target mRNA inhibition (HepG2, 5 µM) of 34%.

Take “CATCTGTGATTTAAGTC (sugars e2 k2 d9 k2 e2, PS)”: where the note is “HepG2, 5 µM”, the target mRNA inhibition is 48%.

Take “AGGACCTGCACTGGTAC (sugars e3 k2 d7 k2 e3, PS)”: the target mRNA inhibition (HepG2, 3 µM) stood at 4%.

On to “AGAAATTCTGACAAGTT (sugars e3 k2 d7 k2 e3, PS)”, for which the target mRNA inhibition (HepG2, 3 µM) is 8%.

For the sequence “GGTCATTGAAACAGACA (sugars e3 k2 d7 k2 e3, PS)”, the target mRNA inhibition (HepG2, 3 µM) was found to be 11%.

Take “AAATCTTCCAAGTGATC (sugars e2 k2 d9 k2 e2, PS)”: the target mRNA inhibition (HepG2, 5 µM) came out at 48%.

Regarding “CGCCCTTCAGCACGCACACG (sugars e5 d10 e5, PS)”, the target mRNA inhibition (HepG2, 0.1875 µM) was found to be 0%; the target mRNA inhibition (HepG2, 0.75 µM) was determined as 2%; the target mRNA inhibition (HepG2, 3 µM) was 28%; the target mRNA inhibition (HepG2, 4 µM) turned out to be 23%; the target mRNA inhibition (HepG2, 12 µM) was found to be 92%.

In turn, “TTTGGATTCTTTTAATAGCC (sugars e5 d10 e5, PS)” registered a target mRNA inhibition (HepG2, 5 µM) of 14%.

In turn, “TTCCCCACACCTTCACT (sugars e3 k2 d7 k2 e3, PS)” returned a target mRNA inhibition (HepG2, 3 µM) of 8%.

For the sequence “AGTGTTTAATGTTTAT (sugars kekeddddddddekek, linkages s1 o3 s8 o1 s2)”, the target mRNA inhibition runs as follows: (A431, 0.12 µM) 2%; (A431, 0.6 µM) 31%; (A431, 3 µM) 47%; (A431, 15 µM) 61%.

“CTGTATTATCTCCAAACTCA (sugars e5 d10 e5, PS)”: the target mRNA inhibition (HepG2, 5 µM) is 32% and 28%.

Regarding “ATAGCCTCATAATAAGT (sugars e2 k2 d8 k2 e3, PS)”, under “HepG2, 5 µM”, the target mRNA inhibition amounted to 20%.

Consider “CCGAGGACTGCAACGGAAAC (sugars e5 d10 e5, PS)”, for which the target mRNA inhibition (HepG2, 4 µM) came to 29%.

As for “CACTACAGGTACTTTAA (sugars e2 k2 d9 k2 e2, PS)”, the target mRNA inhibition (HepG2, 5 µM) was found to be 38%.

Consider “ACAGTGTTTAATGTTTA (sugars e2 k2 d8 k2 e3, linkages s1 o2 s9 o2 s2)”, for which the target mRNA inhibition runs as follows: (A431, 0.12 µM) 17%; (A431, 0.6 µM) 8%; (A431, 3 µM) 26%; (A431, 15 µM) 37%; (HepG2, 0.222 µM) 61%; (HepG2, 0.667 µM) 73%. Further, the target mRNA inhibition (HepG2, 2 µM) is 91% and the target mRNA inhibition (HepG2, 6 µM) stood at 88%.

“CTCACTACAGGTACTTT (sugars e2 k2 d8 k2 e3, PS)”: where the note is “HepG2, 5 µM”, the target mRNA inhibition came to 40%.

Consider “GTTTAATGTTTATCAGGA (sugars e5 d8 e5, linkages s1 o3 s9 o2 s2)”, for which the target mRNA inhibition runs as follows: (A431, 0.12 µM) 15%; (A431, 0.6 µM) 51%; (A431, 3 µM) 68%; (A431, 15 µM) 84%; (HepG2, 0.222 µM) 45%; (HepG2, 0.667 µM) 73%. Further, the target mRNA inhibition is, setting by setting: (HepG2, 2 µM) 78%; (HepG2, 6 µM) 87%.
